Source: ChEMBL document CHEMBL1201862, “PubChem BioAssay data set” (2004)
Several values for one entry are separate records, joined by “and”; a condition that tells them apart may be missing. Equal values may be shown once.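 Test compounds were applied to cells in 96-well plates for 48 hours at 5 doses. At the GI50, growth is halved.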 Activity calls are given as the source filed them. Cut-off read from the data, not from the text of the source: active = GI50 up to about 1.1 µM and inactive = higher. Residues, ends and D or L forms follow the SMILES beside them. *: point of attachment. Boc = CC(C)(C)OC(=O)*; Bn = c1ccc(C*)cc1

How the values were obtained:
Assay in all cases: NCI anticancer screen, dose series, 48 h
CCRF-CEM = system: CCRF-CEM
SF-268 = system: SF-268
IGROV-1 = system: IGROV-1
SW-620 = system: SW-620
786-0 = system: 786-0
SK-MEL-2 = system: SK-MEL-2
CAKI-1 = system: CAKI-1
RXF 393 = system: RXF 393
UACC-257 = system: UACC-257
MCF7 = system: MCF7
MDA-MB-231 = system: MDA-MB-231
SF-295 = system: SF-295
MDA-N = system: MDA-N
SK-MEL-28 = system: SK-MEL-28
UO-31 = system: UO-31
SN12C = system: SN12C
HT-29 = system: HT-29
PC-3 = system: PC-3
NCI/ADR-RES = system: NCI/ADR-RES
Hs-578T = system: Hs-578T
U-251 = system: U-251
SK-OV-3 = system: SK-OV-3
EKVX = system: EKVX
MDA-MB-435 = system: MDA-MB-435
HCT-116 = system: HCT-116
LOX IMVI = system: LOX IMVI
NCI-H522 = system: NCI-H522
OVCAR-8 = system: OVCAR-8
HOP-62 = system: HOP-62
OVCAR-5 = system: OVCAR-5
SF-539 = system: SF-539
KM12 = system: KM12
MOLT-4 = system: MOLT-4
SK-MEL-5 = system: SK-MEL-5
M14 = system: M14
OVCAR-4 = system: OVCAR-4
NCI-H23 = system: NCI-H23
A549 = system: A549
NCI-H226 = system: NCI-H226
HOP-92 = system: HOP-92
BT-549 = system: BT-549
SNB-75 = system: SNB-75
SNB-19 = system: SNB-19
TK-10 = system: TK-10
NCI-H460 = system: NCI-H460
HCC 2998 = system: HCC 2998
HCT-15 = system: HCT-15
UACC-62 = system: UACC-62
COLO 205 = system: COLO 205
OVCAR-3 = system: OVCAR-3
HL-60 = system: HL-60
DU-145 = system: DU-145
ACHN = system: ACHN
K562 = system: K562
SR = system: SR

Structure (SMILES): NC(=S)N/N=c1\cc(C(=O)Nc2ccc([N+](=O)[O-])cc2[N+](=O)[O-])oc2ccccc12
- GI50 (CCRF-CEM): > 100 µM (inactive)
- GI50 (SF-268): > 100 µM (inactive)
- GI50 (IGROV-1): > 100 µM (inactive)
- GI50 (SW-620): > 100 µM (inactive)
- GI50 (786-0): > 100 µM (inactive)
- GI50 (SK-MEL-2): > 100 µM (inactive)
- GI50 (CAKI-1): 75.2 µM (inactive)
- GI50 (RXF 393): > 100 µM (inactive)
- GI50 (UACC-257): > 100 µM (inactive)
- GI50 (MCF7): > 100 µM (inactive)
- GI50 (MDA-MB-231): > 100 µM (inactive)
- GI50 (SF-295): > 100 µM (inactive)
- GI50 (MDA-N): > 100 µM (inactive)
- GI50 (SK-MEL-28): > 100 µM (inactive)
- GI50 (UO-31): 29.8 µM (inactive)
- GI50 (SN12C): > 100 µM (inactive)
- GI50 (HT-29): > 100 µM (inactive)
- GI50 (PC-3): > 100 µM (inactive)
- GI50 (NCI/ADR-RES): > 100 µM (inactive)
- GI50 (Hs-578T): > 100 µM (inactive)
- GI50 (U-251): > 100 µM (inactive)
- GI50 (SK-OV-3): 99.5 µM (inactive)
- GI50 (EKVX): 49.8 µM (inactive)
- GI50 (MDA-MB-435): > 100 µM (inactive)
- GI50 (HCT-116): > 100 µM (inactive)
- GI50 (LOX IMVI): > 100 µM (inactive)
- GI50 (NCI-H522): > 100 µM (inactive)
- GI50 (OVCAR-8): > 100 µM (inactive)
- GI50 (HOP-62): > 100 µM (inactive)
- GI50 (OVCAR-5): > 100 µM (inactive)
- GI50 (SF-539): > 100 µM (inactive)
- GI50 (KM12): > 100 µM (inactive)
- GI50 (MOLT-4): > 100 µM (inactive)
- GI50 (SK-MEL-5): > 100 µM (inactive)
- GI50 (M14): > 100 µM (inactive)
- GI50 (OVCAR-4): > 100 µM (inactive)
- GI50 (NCI-H23): > 100 µM (inactive)
- GI50 (A549): > 100 µM (inactive)
- GI50 (NCI-H226): 88.9 µM (inactive)
- GI50 (HOP-92): 43.5 µM (inactive)
- GI50 (BT-549): > 100 µM (inactive)
- GI50 (SNB-75): > 100 µM (inactive)
- GI50 (SNB-19): > 100 µM (inactive)
- GI50 (TK-10): > 100 µM (inactive)
- GI50 (NCI-H460): > 100 µM (inactive)
- GI50 (HCC 2998): > 100 µM (inactive)
- GI50 (HCT-15): > 100 µM
- GI50 (UACC-62): > 100 µM (inactive)
- GI50 (COLO 205): > 100 µM (inactive)
- GI50 (OVCAR-3): 85.5 µM (inactive)
- GI50 (HL-60): > 100 µM (inactive)
- GI50 (DU-145): > 100 µM (inactive)
- GI50 (ACHN): > 100 µM (inactive)

Structure (SMILES): CNC(=O)C(CC(C)C)NC(=O)C(C)NC(=O)C(Cc1ccc(OCc2ccccc2)cc1)NC(=O)C(COCc1ccccc1)NC(=O)OC(C)(C)C (stereo unspecified) (Boc-S(Bn)Y(Bn)AL-NHMe; configuration not given here)
- GI50 (SF-268): 17.5 µM (inactive) and 22.9 µM (inactive)
- GI50 (IGROV-1): 22.3 µM (inactive) and 23.1 µM (inactive)
- GI50 (SW-620): 11.5 µM (inactive) and 8.65 µM (inactive)
- GI50 (786-0): 22.8 µM (inactive) and 20.7 µM (inactive)
- GI50 (CAKI-1): 32.5 µM (inactive) and > 64 µM (inactive)
- GI50 (UACC-257): > 100 µM (inactive)
- GI50 (MCF7): 10.7 µM (inactive) and 16.1 µM (inactive)
- GI50 (MDA-MB-231): 15.6 µM (inactive) and 16.6 µM (inactive)
- GI50 (MDA-N): 12.1 µM (inactive) and 14.8 µM (inactive)
- GI50 (UO-31): > 100 µM (inactive)
- GI50 (HT-29): 13.6 µM (inactive) and 13.4 µM (inactive)
- GI50 (NCI/ADR-RES): > 100 µM (inactive)
- GI50 (Hs-578T): 25 µM (inactive) and 15.8 µM (inactive)
- GI50 (U-251): 15.9 µM (inactive) and 8.57 µM (inactive)
- GI50 (SK-OV-3): 18.5 µM (inactive) and 27.7 µM (inactive)
- GI50 (HCT-116): 6.5 µM (inactive) and 7.45 µM (inactive)
- GI50 (LOX IMVI): 16.5 µM (inactive) and 11.4 µM (inactive)
- GI50 (NCI-H522): > 10 µM (inactive) and 13.8 µM (inactive)
- GI50 (OVCAR-8): 16.9 µM (inactive) and 17.1 µM (inactive)
- GI50 (HOP-62): 20.5 µM (inactive) and 22.6 µM (inactive)
- GI50 (SF-539): > 42.2 µM (inactive)
- GI50 (KM12): 17 µM (inactive) and 18.2 µM (inactive)
- GI50 (MOLT-4): 6.85 µM (inactive) and 6.15 µM (inactive)
- GI50 (OVCAR-4): 17.9 µM (inactive) and 20.6 µM (inactive)
- GI50 (K562): 9.95 µM (inactive) and 12.6 µM (inactive)
- GI50 (NCI-H23): 20.1 µM (inactive) and 27.2 µM (inactive)
- GI50 (HOP-92): 24.9 µM (inactive) and 30.5 µM (inactive)
- GI50 (BT-549): 18.5 µM (inactive) and 22 µM (inactive)
- GI50 (SNB-19): 30 µM (inactive) and 17.4 µM (inactive)
- GI50 (SR): 15.1 µM (inactive) and 8.55 µM (inactive)
- GI50 (HCT-15): > 100 µM
- GI50 (UACC-62): 18.5 µM (inactive) and > 10 µM (inactive)
- GI50 (DU-145): 65.5 µM (inactive)
